Drawing on ChEMBL document CHEMBL3991601, “The target landscape of clinical kinase drugs” (Science, 2017), this text covers Kd for 24 compounds.

One assay has as its target T1, Ephrin type-A receptor 1 (Homo sapiens, UniProt P21709).
T1 sequence (P21709 whole entry): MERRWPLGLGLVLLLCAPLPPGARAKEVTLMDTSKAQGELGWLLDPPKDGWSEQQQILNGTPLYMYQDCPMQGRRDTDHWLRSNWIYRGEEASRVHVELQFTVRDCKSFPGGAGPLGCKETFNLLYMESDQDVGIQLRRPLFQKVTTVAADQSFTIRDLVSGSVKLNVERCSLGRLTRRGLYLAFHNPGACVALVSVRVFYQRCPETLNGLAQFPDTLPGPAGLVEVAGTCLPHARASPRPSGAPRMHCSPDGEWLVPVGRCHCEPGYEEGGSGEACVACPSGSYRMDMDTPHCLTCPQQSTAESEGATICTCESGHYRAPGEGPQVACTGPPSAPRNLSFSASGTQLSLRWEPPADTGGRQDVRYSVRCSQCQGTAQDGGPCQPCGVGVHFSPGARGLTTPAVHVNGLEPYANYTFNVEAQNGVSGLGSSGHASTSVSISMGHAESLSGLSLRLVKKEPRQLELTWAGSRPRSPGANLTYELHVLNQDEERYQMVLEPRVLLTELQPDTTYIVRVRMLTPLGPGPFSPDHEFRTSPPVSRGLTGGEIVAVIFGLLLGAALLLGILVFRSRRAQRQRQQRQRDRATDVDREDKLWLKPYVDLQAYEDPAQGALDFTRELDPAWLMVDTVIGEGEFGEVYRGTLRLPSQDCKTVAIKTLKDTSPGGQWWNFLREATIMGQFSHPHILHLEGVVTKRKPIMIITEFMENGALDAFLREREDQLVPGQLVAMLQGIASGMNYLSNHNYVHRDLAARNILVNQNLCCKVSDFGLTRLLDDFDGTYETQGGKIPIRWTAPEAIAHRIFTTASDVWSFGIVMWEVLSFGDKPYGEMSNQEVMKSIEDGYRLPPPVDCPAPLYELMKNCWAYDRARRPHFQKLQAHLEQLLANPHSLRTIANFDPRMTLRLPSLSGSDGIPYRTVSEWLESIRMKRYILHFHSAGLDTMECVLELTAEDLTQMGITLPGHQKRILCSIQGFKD

The target of assay [1] is Tyrosine-protein kinase Lck (Homo sapiens, UniProt P06239).
Tyrosine-protein kinase Lck, sequence (P06239 whole entry, the tested form may be a part): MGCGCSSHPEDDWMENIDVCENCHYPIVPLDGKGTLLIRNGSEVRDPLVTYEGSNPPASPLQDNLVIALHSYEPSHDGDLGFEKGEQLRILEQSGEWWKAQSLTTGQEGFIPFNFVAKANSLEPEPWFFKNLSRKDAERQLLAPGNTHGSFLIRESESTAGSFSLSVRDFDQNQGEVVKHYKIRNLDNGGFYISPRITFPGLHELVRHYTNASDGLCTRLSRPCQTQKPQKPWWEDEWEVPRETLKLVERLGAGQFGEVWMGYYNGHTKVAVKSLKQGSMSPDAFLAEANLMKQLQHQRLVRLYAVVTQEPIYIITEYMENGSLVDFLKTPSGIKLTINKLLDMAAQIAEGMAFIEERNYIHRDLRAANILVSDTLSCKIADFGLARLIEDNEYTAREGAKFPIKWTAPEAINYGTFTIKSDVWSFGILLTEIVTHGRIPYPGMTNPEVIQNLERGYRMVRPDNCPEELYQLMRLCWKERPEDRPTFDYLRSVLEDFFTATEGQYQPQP
Assay [2] concerns the target PAS domain-containing serine/threonine-protein kinase (Homo sapiens, UniProt Q96RG2).
Assay [3] has as its target Serine/threonine-protein kinase 24 (Homo sapiens, UniProt Q9Y6E0).
In assay [4] the target is T2, Thyroid hormone receptor-associated protein 3 (Homo sapiens, UniProt Q9Y2W1).
T2 sequence (Q9Y2W1 whole entry): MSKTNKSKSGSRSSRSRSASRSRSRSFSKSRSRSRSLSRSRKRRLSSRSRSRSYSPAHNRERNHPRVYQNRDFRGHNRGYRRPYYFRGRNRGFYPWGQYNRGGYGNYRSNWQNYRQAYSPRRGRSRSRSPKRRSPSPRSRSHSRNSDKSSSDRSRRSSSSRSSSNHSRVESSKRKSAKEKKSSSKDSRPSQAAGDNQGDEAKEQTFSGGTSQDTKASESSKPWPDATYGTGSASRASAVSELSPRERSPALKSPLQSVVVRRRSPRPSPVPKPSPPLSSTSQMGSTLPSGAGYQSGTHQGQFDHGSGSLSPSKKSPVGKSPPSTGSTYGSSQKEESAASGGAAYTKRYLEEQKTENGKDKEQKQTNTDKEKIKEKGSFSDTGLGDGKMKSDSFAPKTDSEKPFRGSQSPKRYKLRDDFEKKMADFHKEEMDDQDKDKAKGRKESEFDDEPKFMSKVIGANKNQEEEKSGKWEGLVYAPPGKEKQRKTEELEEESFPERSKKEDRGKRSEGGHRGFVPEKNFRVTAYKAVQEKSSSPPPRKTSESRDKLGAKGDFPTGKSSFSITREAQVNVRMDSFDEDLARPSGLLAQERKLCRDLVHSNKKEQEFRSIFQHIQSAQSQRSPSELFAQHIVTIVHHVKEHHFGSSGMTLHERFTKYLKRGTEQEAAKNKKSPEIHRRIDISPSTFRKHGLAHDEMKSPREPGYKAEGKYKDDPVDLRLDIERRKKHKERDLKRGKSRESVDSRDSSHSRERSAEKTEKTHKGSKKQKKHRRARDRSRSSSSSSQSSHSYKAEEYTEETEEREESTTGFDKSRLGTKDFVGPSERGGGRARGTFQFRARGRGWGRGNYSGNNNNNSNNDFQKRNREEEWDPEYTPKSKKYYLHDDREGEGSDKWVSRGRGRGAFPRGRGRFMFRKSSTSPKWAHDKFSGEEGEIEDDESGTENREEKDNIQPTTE

The next assay deals with Misshapen-like kinase 1 (Homo sapiens, UniProt Q8N4C8).
Misshapen-like kinase 1, sequence (Q8N4C8 whole entry): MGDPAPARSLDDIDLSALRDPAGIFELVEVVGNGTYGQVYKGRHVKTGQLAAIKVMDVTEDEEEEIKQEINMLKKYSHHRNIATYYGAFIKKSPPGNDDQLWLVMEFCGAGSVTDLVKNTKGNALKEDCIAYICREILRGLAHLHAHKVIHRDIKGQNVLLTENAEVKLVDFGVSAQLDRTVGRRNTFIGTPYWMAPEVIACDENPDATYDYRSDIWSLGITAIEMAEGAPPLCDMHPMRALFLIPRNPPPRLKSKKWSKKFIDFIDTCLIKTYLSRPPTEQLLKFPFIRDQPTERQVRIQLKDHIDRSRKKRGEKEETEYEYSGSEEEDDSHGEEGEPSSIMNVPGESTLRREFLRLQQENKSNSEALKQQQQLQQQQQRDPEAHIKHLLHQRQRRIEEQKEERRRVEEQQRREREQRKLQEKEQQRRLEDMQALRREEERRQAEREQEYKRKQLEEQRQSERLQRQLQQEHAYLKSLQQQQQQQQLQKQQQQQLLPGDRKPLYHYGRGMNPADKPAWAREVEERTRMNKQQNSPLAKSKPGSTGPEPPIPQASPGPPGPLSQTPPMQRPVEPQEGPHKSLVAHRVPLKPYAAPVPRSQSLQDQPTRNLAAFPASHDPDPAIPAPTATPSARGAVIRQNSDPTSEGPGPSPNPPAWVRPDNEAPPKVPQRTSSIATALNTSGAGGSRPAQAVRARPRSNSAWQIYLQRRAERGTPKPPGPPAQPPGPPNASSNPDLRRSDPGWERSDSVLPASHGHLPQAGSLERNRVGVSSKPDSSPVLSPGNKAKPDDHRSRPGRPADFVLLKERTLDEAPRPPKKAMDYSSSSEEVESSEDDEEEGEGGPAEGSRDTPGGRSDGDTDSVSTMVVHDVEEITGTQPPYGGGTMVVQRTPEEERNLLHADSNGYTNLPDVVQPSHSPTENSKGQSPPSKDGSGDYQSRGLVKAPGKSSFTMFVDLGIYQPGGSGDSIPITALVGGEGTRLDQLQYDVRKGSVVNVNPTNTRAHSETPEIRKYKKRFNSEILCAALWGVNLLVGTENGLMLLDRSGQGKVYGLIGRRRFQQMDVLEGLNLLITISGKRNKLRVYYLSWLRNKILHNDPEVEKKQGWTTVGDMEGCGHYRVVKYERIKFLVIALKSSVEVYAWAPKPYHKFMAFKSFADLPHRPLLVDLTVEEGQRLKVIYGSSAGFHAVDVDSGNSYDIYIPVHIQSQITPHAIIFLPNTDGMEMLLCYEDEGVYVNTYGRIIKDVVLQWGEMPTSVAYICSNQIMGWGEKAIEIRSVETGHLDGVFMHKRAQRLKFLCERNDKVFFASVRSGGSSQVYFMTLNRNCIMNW

Activity calls are given as the source filed them.

As usually defined, the Kd is the equilibrium constant for the complex coming apart.
Also: in the data inactive means no Kd found up to 30 µM.

Serine/threonine-protein kinase 24, sequence (Q9Y6E0 whole entry): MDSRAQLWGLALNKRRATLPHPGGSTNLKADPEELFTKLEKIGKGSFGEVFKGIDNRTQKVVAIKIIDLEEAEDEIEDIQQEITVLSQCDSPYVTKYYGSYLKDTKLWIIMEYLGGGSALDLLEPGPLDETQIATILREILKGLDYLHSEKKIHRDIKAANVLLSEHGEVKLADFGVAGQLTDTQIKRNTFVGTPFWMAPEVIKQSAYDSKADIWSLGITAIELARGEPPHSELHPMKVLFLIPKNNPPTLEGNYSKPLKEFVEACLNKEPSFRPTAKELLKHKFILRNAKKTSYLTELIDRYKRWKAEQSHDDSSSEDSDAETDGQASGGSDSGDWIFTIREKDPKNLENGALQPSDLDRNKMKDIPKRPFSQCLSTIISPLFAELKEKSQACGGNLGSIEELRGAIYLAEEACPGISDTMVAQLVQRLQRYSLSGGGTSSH
PAS domain-containing serine/threonine-protein kinase, sequence (Q96RG2 whole entry, the tested form may be a part): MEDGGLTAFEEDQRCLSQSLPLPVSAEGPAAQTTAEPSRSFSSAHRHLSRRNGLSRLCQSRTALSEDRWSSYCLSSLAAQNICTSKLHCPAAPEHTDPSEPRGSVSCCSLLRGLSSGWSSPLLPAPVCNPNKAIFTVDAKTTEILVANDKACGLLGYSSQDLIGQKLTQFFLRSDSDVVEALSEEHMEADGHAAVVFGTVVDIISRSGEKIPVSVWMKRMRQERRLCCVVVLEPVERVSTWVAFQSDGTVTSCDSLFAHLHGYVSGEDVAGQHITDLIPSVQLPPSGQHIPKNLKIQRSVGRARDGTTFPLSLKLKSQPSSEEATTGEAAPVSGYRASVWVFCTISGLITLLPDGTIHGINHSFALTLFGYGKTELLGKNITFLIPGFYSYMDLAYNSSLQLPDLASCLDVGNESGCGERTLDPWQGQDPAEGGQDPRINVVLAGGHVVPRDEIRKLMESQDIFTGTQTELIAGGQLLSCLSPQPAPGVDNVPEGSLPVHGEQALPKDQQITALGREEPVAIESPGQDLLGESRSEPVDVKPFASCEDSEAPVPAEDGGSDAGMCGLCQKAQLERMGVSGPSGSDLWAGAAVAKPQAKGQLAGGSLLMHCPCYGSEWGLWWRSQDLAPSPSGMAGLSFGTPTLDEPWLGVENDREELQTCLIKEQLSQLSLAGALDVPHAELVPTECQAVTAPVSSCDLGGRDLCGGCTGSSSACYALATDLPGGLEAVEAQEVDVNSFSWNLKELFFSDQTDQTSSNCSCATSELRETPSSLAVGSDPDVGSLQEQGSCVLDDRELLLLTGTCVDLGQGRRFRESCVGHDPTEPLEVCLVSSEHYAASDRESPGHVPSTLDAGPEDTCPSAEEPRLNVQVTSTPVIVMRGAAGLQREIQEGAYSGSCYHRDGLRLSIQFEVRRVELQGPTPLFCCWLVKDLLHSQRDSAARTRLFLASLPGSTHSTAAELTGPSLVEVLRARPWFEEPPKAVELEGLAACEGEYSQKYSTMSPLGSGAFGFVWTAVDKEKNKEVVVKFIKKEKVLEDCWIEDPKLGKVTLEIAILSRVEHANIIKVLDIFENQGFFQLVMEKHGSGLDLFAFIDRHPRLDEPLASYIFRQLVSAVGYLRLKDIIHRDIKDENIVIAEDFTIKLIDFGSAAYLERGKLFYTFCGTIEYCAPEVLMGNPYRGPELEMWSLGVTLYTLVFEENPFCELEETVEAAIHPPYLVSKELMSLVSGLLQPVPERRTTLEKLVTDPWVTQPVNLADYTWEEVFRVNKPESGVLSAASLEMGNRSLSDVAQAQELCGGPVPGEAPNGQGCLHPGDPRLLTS

For `Cc1cc(Nc2nc(N[C@@H](C)c3ncc(F)cn3)ncc2Cl)n[nH]1` [AZD-1480], the Kd (on Ephrin type-A receptor 1; in assay [1]; in assay [2]; in assay [3]; in assay [4]) was > 30 µM (inactive) each time.
For the compound `COc1cc(F)c(F)c(Nc2ccc(I)cc2F)c1NS(=O)(=O)C1(C[C@H](O)CO)CC1` [REFAMETINIB], the Kd (at Ephrin type-A receptor 1; in assay [1]; on Misshapen-like kinase 1; in assay [2]; in assay [4]) was > 30 µM (inactive) in each case.
On to `CCOc1ccn(-c2ccc(F)cc2)c(=O)c1C(=O)Nc1ccc(Oc2ccnc(N)c2Cl)c(F)c1` [BMS-777607], for which the Kd on Misshapen-like kinase 1 was > 30 µM (inactive).
For the compound `CNC(=O)c1cc(COc2nnc(Nc3ccc(Cl)cc3)c3ccoc23)ccn1` [TELATINIB], the Kd (at Ephrin type-A receptor 1; in assay [1]; at Misshapen-like kinase 1; in assay [2]; in assay [3]) was > 30 µM (inactive) in each case.
On to `NC(=O)c1ccc(N(C(N)=O)c2c(F)cccc2F)nc1-c1ccc(F)cc1F` [VX-702], for which the Kd (at Ephrin type-A receptor 1; in assay [1]; in assay [2]; in assay [3]; in assay [4]) was > 30 µM (inactive) each time.
As for `O=C(Nc1ccc(OC(F)(F)F)cc1)c1sccc1NCc1ccnc2ccccc12` [OSI-930], the Kd (at Ephrin type-A receptor 1; in assay [1]; at Misshapen-like kinase 1; in assay [2]; in assay [4]) was > 30 µM (inactive) each time.
Turning to `COc1ccc(-c2ccc3ncc4c(c3c2)n(-c2ccc(N3CCNCC3)c(C(F)(F)F)c2)c(=O)n4C)cn1` [BGT-226 FREE BASE], the Kd (on Ephrin type-A receptor 1; in assay [1]; on Misshapen-like kinase 1; in assay [2]) was > 30 µM (inactive) in each case.
In the case of `O=C(O)c1ccc2c(c1)nc(Nc1cccc(Cl)c1)c1ccncc12` [SILMITASERTIB], the Kd (in assay [1]; at Misshapen-like kinase 1; in assay [3]; in assay [4]) was > 30 µM (inactive) throughout.
For `CCN(CCCOc1ccc2c(Nc3cc(CC(=O)Nc4cccc(F)c4)n[nH]3)ncnc2c1)CCOP(=O)(O)O` [BARASERTIB], the Kd (on Ephrin type-A receptor 1; at Misshapen-like kinase 1; in assay [3]; in assay [4]) was > 30 µM (inactive) each time.
Turning to `O=S(=O)(c1cccc2c(O)nccc12)N1CCCNCC1` [HYDROXYFASUDIL], the Kd (at Ephrin type-A receptor 1; in assay [2]; in assay [3]; in assay [4]) was > 30 µM (inactive) each time.
Consider `COc1cc2ncnc(Nc3ccc(O)cc3)c2cc1OC` [WHI-P131], for which the Kd (on Ephrin type-A receptor 1; in assay [1]; in assay [2]; in assay [3]; in assay [4]) was > 30 µM (inactive) in each case.
For `Cn1c(=O)c(F)c(Nc2ccc(I)cc2F)c2c(=O)n(C[C@@H](O)CO)cnc21` [TAK-733], the Kd (on Ephrin type-A receptor 1; in assay [1]; in assay [2]; in assay [3]; in assay [4]) was > 30 µM (inactive) each time.
As for `S=C(NCc1ccc2c(c1)OCO2)N1CCN(c2ncnc3c2oc2ccccc23)CC1` [AMUVATINIB], the Kd (in assay [1]; at Misshapen-like kinase 1; in assay [2]; in assay [3]; in assay [4]) was > 30 µM (inactive) each time.
Consider `C=CC(=O)Nc1cc(Nc2nccc(-c3cn(C)c4ccccc34)n2)c(OC)cc1N(C)CCN(C)C` [OSIMERTINIB], for which the Kd (at Ephrin type-A receptor 1; in assay [1]; on Misshapen-like kinase 1; in assay [4]) was > 30 µM (inactive) throughout.
As for `Cn1cc(-c2[nH]c3cc(NC(=O)[C@H](N)C4CCCCC4)cc4c3c2C=NNC4=O)cn1`, the Kd was > 30 µM (inactive) on Ephrin type-A receptor 1; 1.38 µM (active) in assay [1]; 0.02 µM at Misshapen-like kinase 1; > 30 µM (inactive) in assay [2]; > 30 µM (inactive) in assay [3].
For `O=C(NC[C@H](O)CO)c1ccncc1Nc1ccc(I)cc1F` [PIMASERTIB], the Kd (in assay [1]; at Misshapen-like kinase 1; in assay [2]; in assay [3]; in assay [4]) was > 30 µM (inactive) in each case.
Regarding `CCc1cc2c(cc1N1CCC(N3CCOCC3)CC1)C(C)(C)c1[nH]c3cc(C#N)ccc3c1C2=O` [ALECTINIB], the Kd at Ephrin type-A receptor 1 is 0.193 µM (active); in assay [1] it was > 30 µM (inactive); at Misshapen-like kinase 1, > 30 µM (inactive); in assay [2], > 30 µM (inactive); in assay [4], > 30 µM (inactive).
Regarding `Cn1c(=O)n(-c2ccc(C(C)(C)C#N)cc2)c2c3cc(-c4cnc5ccccc5c4)ccc3ncc21` [DACTOLISIB], the Kd (on Ephrin type-A receptor 1; on Misshapen-like kinase 1; in assay [3]; in assay [4]) was > 30 µM (inactive) throughout.
In the case of `Cc1c(NC(=O)OC[C@@H]2COCCN2)cn2ncnc(Nc3ccc4c(cnn4Cc4cccc(F)c4)c3)c12` [AC-480], the Kd (at Ephrin type-A receptor 1; in assay [1]; in assay [2]; in assay [3]; in assay [4]) was > 30 µM (inactive) in each case.
In the case of `COc1cc(Nc2ncc(F)c(Nc3ccc4c(n3)N(COP(=O)(O)O)C(=O)C(C)(C)O4)n2)cc(OC)c1OC` [FOSTAMATINIB], the Kd (at Ephrin type-A receptor 1; in assay [1]; in assay [2]; in assay [3]) was > 30 µM (inactive) each time.
Take `CN1CCN(c2nc(C3=C(c4c[nH]c5ccccc45)C(=O)NC3=O)c3ccccc3n2)CC1` [SOTRASTAURIN]: the Kd on Ephrin type-A receptor 1 was > 30 µM (inactive); in assay [1], > 30 µM (inactive); on Misshapen-like kinase 1, 0.041 µM (active); in assay [3], > 30 µM (inactive).
For the compound `C[C@]1(O)C[C@@H](c2nc(-c3ccc4ccc(-c5ccccc5)nc4c3)c3c(N)nccn32)C1` [LINSITINIB], the Kd (on Misshapen-like kinase 1; in assay [2]; in assay [4]) was > 30 µM (inactive) each time.
In the case of `CC[C@@](C)(Nc1ccnc(-c2c[nH]c3ncccc23)n1)C(=O)NCC(F)(F)F` [DECERNOTINIB], the Kd (on Ephrin type-A receptor 1; in assay [1]; in assay [2]; in assay [3]) was > 30 µM (inactive) in each case.
As to `NC[C@@](O)(c1ccc(Cl)cc1)c1ccc(-c2cn[nH]c2)cc1` [AT-13148], the Kd (in assay [1]; on Misshapen-like kinase 1; in assay [4]) was > 30 µM (inactive) throughout.
